Data as given in publication PMC5333804, “Comparison of pancreatic lipase inhibitory isoflavonoids from unripe and ripe fruits of Cudrania tricuspidata” (PLoS ONE, 2017).

Columns and labels:
[1] = biological target: T1, porcine pancreatic lipase (Sus scrofa, UniProt P00591); assay: p-nitrophenyl butyrate hydrolysis assay, % inhibition at […]; assay type: biochemical
T1 construct: gene PNLIP
T1 sequence (P00591 1-450): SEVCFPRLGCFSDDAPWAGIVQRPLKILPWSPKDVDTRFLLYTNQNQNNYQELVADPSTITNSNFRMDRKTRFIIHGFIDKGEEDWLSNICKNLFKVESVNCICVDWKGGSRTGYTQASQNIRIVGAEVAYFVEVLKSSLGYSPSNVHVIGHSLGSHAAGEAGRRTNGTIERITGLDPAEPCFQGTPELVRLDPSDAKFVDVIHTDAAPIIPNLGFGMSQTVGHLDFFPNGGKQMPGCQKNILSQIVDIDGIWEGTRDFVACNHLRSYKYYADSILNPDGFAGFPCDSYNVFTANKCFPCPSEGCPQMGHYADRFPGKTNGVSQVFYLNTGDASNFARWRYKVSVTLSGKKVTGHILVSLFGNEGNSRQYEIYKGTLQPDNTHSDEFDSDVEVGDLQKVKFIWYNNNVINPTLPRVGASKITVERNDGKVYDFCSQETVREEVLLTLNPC

[2] = biological target: T1, porcine pancreatic lipase; assay: p-nitrophenyl butyrate hydrolysis assay; Lineweaver-Burk analysis; assay type: biochemical

| SMILES | inhibition at 100 µM [1] | IC50 [2] |
| --- | --- | --- |
| CC(C)=CCc1c(O)cc2occ(-c3ccc(O)cc3)c(=O)c2c1O [compound 9, wighteone] | 65.7% |  |
| CC(C)=CCc1c2c(c(O)c3c(=O)c(-c4ccc(O)cc4)coc13)C=CC(C)(C)O2 [compound 16, scandenone] | > 50% |  |
| CC(C)=CCc1c(O)c(CC=C(C)C)c2occ(-c3ccc(O)c(O)c3)c(=O)c2c1O [compound 12, 5,7,3',4'-tetrahydroxy-6-8-diprenylisoflavone] | 92.8% |  |
| O=c1c(-c2ccc(O)cc2)coc2cc(O)cc(O)c12 [compound 1, genistein] | 60.7% |  |

Continued, values first:

| inhibition at 100 µM [1] | IC50 [2] | SMILES |
| --- | --- | --- |
| > 50% |  | CC1(C)C=Cc2c(cc3occ(-c4ccc(O)c(O)c4)c(=O)c3c2O)O1 [compound 15, 5,3',4'-trihydroxy-6'',6''-dimethylpyrano-[2'',3'';7,6]isoflavone] |
|  | 16.8 µM | CC1(C)C=Cc2c(cc(O)c3c(=O)c(-c4ccc(O)c(O)c4)coc23)O1 [compound 19, 5,3',4'-trihydroxy-2", 2"-dimethylpyrano (5",6":7,8) isoflavone] |
| 68.2% |  | CC1(C)C=Cc2c(cc(O)c3c(=O)c(-c4ccc(O)cc4)coc23)O1 [compound 17, derrone] |
